Assay results reported in patent US12318388B2, “Pyrimidine derivatives for prevention and treatment of gram-negative bacterial infection, contamination and fouling” (UNIVERSITÉ DE LIÈGE, priority 2019, dated 2025).
In brackets after ≈: the same amount, converted by molar mass. Several values for one entry are separate records, joined by “and”; a condition that tells them apart may be missing. Equal entries are not always repeated. Entries after “also recorded” stand apart in the source; their conditions may differ.

Key:
Format in all cases: cell-based
[1] = test system: Escherichia coli (ATCC 8739); assay: Minimal Inhibitory Concentration (MIC) on Escherichia coli with or without PMBN, OD600 after O/N growth; settings: for MIC: molecule alone
Protocol: The Minimal Inhibitory Concentration (MIC) of molecules 2329, 2412, 2452 and 2461 together with polymyxin B nonapeptide (PMBN) was determined on Escherichia coli (ATCC 8739) according to EUCAST (European Committee on Antimicrobial Susceptibility Testing) recommendations.
(§1) Briefly, a single colony grown on a Luria-Bertani Agar (LB) plate was resuspended and cultured in the LB medium overnight (O/N) in aerobic conditions (37° C. with 220 rpm shaking), next day a 1:50 inoculum in Mueller-Hinton broth (MHB) was incubated in aerobic conditions for 1h30 (OD=0.08-0.1) and an inoculum of 1:300 dilution, corresponding to 3×10^6 CFU/ml, was incubated in presence or absence of different concentrations of the molecules in 1% DMSO (vehicle) with or without Polymyxin B nonapeptide (PMBN) at 40 μg/ml. After O/N growth the OD of each culture was measured at 600 nm in a spectrophotometer (OD600). The MIC represents the concentration at which there is no visible growth of bacteria, i.e. ΔOD at 600 nm equal to zero wherein ΔOD is the difference between the resulting optical density (OD) with the molecule together with PMBN, and the optical density (OD) of the blank (blank is the medium) alone.
(§2) A single colony grown on an Lurian-Bertani (LB) agar plate is resuspended and cultured in LB medium overnight (O/N) in aerobic conditions (37° C. with 220 rpm shaking), next day a 1:50 inoculum in Mueller-Hinton broth (MHB) is incubated in aerobic conditions for 1h30 (OD=0.08-0.1) and an inoculum of 1:300 dilution, corresponding to 3×10^6 CFU/ml, is incubated in presence or absence of different concentrations of the tested molecules in 1% DMSO (vehicle) with or without PMBN at 40 μg/ml. After O/N growth the OD of each culture was measured at 600 nm (OD600) in a spectrophotometer (Victor 3-Perkin Elmer). The MIC represents the concentration at which there is no visible growth of bacteria, i.e. ΔOD at 600 nm equal to zero wherein ΔOD is the difference between the resulting optical density (OD) with the molecule together with PMBN, and the optical density (OD) of the blank (blank is the medium) alone.
as §1, with “cultured in LB medium” for “cultured in the LB medium”, “of the above-mentioned molecules in” for “of the molecules in”
as §2, with “a Luria-Bertani” for “an Lurian-Bertani”, “above-mentioned pyrazolopyrimidine molecule” for “tested molecules”, “alone. […]” for “alone.”

[2] = test system: Pseudomonas aeruginosa (ATCC27853); assay: Minimal Inhibitory Concentration (MIC) on Pseudomonas aeruginosa with or without PMBN
Protocol: A single colony grown on an tryptic soy agar plate is resuspended and cultured in tryptic soy broth medium overnight (O/N) in aerobic conditions (37° C. with 220 rpm shaking), next day a 1:100 inoculum in Mueller-Hinton broth (MHB) is incubated in aerobic conditions for 3h (OD=0.5-0.6) and an inoculum of 1:1000 dilution, corresponding to 1-3×10^5 CFU/ml, is incubated in presence or absence of different concentrations of the tested molecules in 1% DMSO (vehicle) with or without PMBN at 0.5 μg/ml. After 28-30h growth the OD of each culture was measured at 600 nm (OD600) in a spectrophotometer (Victor 3-Perkin Elmer). The MIC represents the concentration at which there is no visible growth of bacteria, i.e. ΔOD at 600 nm equal to zero (blank is the medium alone) wherein ΔOD is the difference between the resulting optical density (OD) with the molecule together with PMBN, and the optical density (OD) of the blank (blank is the medium) alone.

[3] = test system: E. coli (ATCC 8739) biofilm; assay: Inhibition of E. coli biofilm formation (crystal violet, biofilm mass); settings: for E. coli biofilm mass expressed in percentage: replicate values
Protocol: 1.5×10^4 CFU of E. coli (ATCC 8739) in early logarithmic phase were added in a well of a 48-well polystyrene plate containing Luria Bertani (LB) medium supplemented with 5% mannose (purchased from Sigma-aldrich #M6020-25G) and incubated for 48h at 37° C. The incubation was carried in static conditions in presence or absence of different concentrations of the molecules 2329 or 2666 in combination or not with the penetrating agent polymyxin B nonapeptide (PMBN) (35 μg/ml) (provided by Sigma-aldrich #P2076-5MG). After incubation, planktonic bacteria, which are bacteria floating in the liquid medium, were removed and adherent bacteria were washed 2 times in PBS. Crystal Violet (Sigma-aldrich #C0775-25G) (1% solution in dH2O) was then added to the wells for 15 min at RT to stain the biofilm. Wells were washed 3 times with PBS (phosphate buffered saline provided by Lonza #17-516F) to eliminate unbound crystal violet and […] Acetic Acid 20% was added and incubated at RT for 10 min. The absorbance of the solution was measured at 570 nm with an Infinite 200 PRO (Tecan) reflecting the total biomass of the biofilm, which corresponds to the sum of live and dead bacteria. The Biofilm Mass, expressed in percentage, is calculated by the following formula: Abs(sample)/Abs(DMSO 1%)*100, wherein the Abs(sample) or Abs(DMSO) represents the difference between the absorbance of the sample or DMSO and the blank (blank is the medium alone without bacteria).

Compound: Polymyxin B nonapeptide [PMBN, reference compound]
- Inhibition of E. coli growth by PMBN alone ([1]; 40 μg/ml PMBN alone): unable to inhibit; also recorded: did not inhibit
- Inhibition of Pseudomonas aeruginosa growth by PMBN alone ([2]; 0.5 μg/ml PMBN alone): did not inhibit
- Effect on E. coli biofilm growth (FIG. 2) ([3]; PMBN 35 μg/ml alone): reduced by half
- E. coli biofilm mass expressed in percentage ([3]; PMBN 35 μg/ml alone): 47.94 percentage and 48.98 percentage and 53.90 percentage and 50.87 percentage

Compound: CCCSc1nc(N[C@@H]2C[C@H]2c2ccc(F)c(F)c2)c2ncn(C)c2n1 [molecule 2329, N-((1R,2S)-2-(3,4-difluorophenyl)cyclopropyl)-9-methyl-2-(propylthio)-9H-purin-6-amine]
- OD600 nm after O/N growth of Escherichia coli (FIG. 4) ([1]; 10 μM with 40 μg/ml PMBN): killed all bacteria
- MIC ([1]; E. coli (ATCC 8739)): >100 µM
- Minimal inhibitory concentration With PMBN ([1]; E. coli (ATCC 8739), together with PMBN at 40 μg/ml): 10 µM (≈ 3.75 µg/mL)
- MIC ([1]; Escherichia coli, ATCC8739, E. coli (ATCC 8739)): > 100 µM
- Activity against Escherichia coli (ATCC 8739), conclusion ([1]; with 40 μg/ml PMBN): bactericidal activity
- Minimal inhibitory concentration without PMBN ([2]; Pseudomonas aeruginosa (ATCC 27853), molecule alone): >100 µM
- Minimal inhibitory concentration With PMBN ([2]; Pseudomonas aeruginosa (ATCC 27853), together with PMBN at 0.5 μg/ml): 50 µM (≈ 18.8 µg/mL)
- Effect on E. coli biofilm formation (FIG. 2) ([3]; 5 μM combined with 35 μg/ml PMBN): fully inhibited
- E. coli biofilm mass expressed in percentage ([3]; 2329 20 μM without PMBN): 110.45 percentage and 124.24 percentage and 97.41 percentage and 107.12 percentage
- E. coli biofilm mass expressed in percentage ([3]; P + 2329 5 μM (PMBN 35 μg/ml)): 12.79 percentage and 11.45 percentage and −1.25 percentage and −1.59 percentage
- E. coli biofilm mass expressed in percentage ([3]; P + 2329 10 μM (PMBN 35 μg/ml)): 0.12 percentage and −1.01 percentage and 2.96 percentage and 3.11 percentage
- Effect on E. coli biofilm growth (FIG. 2) ([3]; molecule alone, without PMBN): no effect
